Results taken from publication PMC5481443, “High-throughput Screening of Small Molecule Inhibitors of the Streptococcus Quorum-sensing Signal Pathway” (Scientific Reports, 2017).

Tests used:
MuPEP1 = MuPEP1 (Streptococcus mutans, UniProt Q8DW05); assay: Kinetic analysis of MuPEP1 peptidase activity
Method: (§1) The PEP activity was assayed in a 110-μL reaction mixture containing 50 mM Tris-HCl, 150 mM ammonium sulfate, 0.02% Triton X-100, and various concentrations of the substrate. The reaction was started by adding the PEP solution to a final concentration of 0.25–2.0 μM. The reaction was performed at 25 °C, 50 μL of the reaction mixture was transferred to a white 96-well microtiter plate (Thermo Scientific 236105), and the fluorescence intensity was immediately measured by using a Promega GloMax®-Multi plus Detection System (Promega, Madison, WI) with excitation at 405 nm and emission at 495–505 nm.
(§2) Supplementary Figure S1: v/[E] versus substrate concentration plots for the PEP […]
(§3) The data were fitted with a saturation curve with the
(§4) Tris-HCl, 150 mM ammonium sulfate, and Triton X-100, pH 7.0, at 25 °C. The concentrations of Triton X-100 were 0.01% for MuPEP1 and 0.02% for S. pneumoniae PEP. The concentrations of PEP or the peptidase domain of BlpA were […]
(1 picture or pasted object on this page, not shown here)

S. oralis PEP = S. oralis PEP (Streptococcus oralis, UniProt A0A1X1IJV1); assay: S. oralis PEP peptidase assay with tCComC-AFC
Sequence of S. oralis PEP (A0A1X1IJV1 entry or part of it): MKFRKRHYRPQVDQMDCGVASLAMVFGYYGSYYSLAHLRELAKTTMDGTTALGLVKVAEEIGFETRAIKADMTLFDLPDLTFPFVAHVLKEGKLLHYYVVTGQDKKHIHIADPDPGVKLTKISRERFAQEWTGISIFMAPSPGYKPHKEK
Method: as §1
Supplementary Figure S1: v/[E] versus substrate concentration plots for the PEP
as §3
Tris-HCl, 150 mM ammonium sulfate, and Triton X-100, pH 7.0, at 25 °C. The
concentrations of Triton X-100 were 0.01% for MuPEP1 and 0.02% for S.
pneumoniae PEP. […]

[1] = tested on: nlmA and nlmC gene expression of S. mutans; assay: Real-time quantitative RT-PCR of bacteriocin genes; assay type: cell-based; settings: 25 μM compound
Method: Six microliters of the overnight culture of S. mutans in BHI medium was inoculated into 0.4 mL of CDM. After 17 h of incubation at 37 °C in 5% CO2 under anaerobic condition in an AnaeroPack system, cells were collected by centrifugation and treated with labiase (Cosmo Bio, Tokyo, Japan), and total RNA was extracted and purified by using a PureLink™ RNA Mini kit (Ambion, Austin, TX). Purified RNA was reverse transcribed to cDNA by using SuperScript® VILO™ cDNA Synthesis kit. Quantitative real-time PCR was performed by using a Power SYBR® Green PCR Master Mix (Applied Biosystems, Foster City, CA) on a StepOnePlus Real–Time PCR system (Applied Biosystems). The gene expression levels were calculated by using the ΔΔ threshold cycle (ΔΔC T) method. The 16S rRNA gene of S. mutans was used as the housekeeping reference. The oligonucleotides to amplify each gene were as follows: 5′-[…]-3′ and 5′-[…]-3′ for 16S rRNA, 5′-[…]-3′ and 5′-[…]-3′ for nlmA (SMU. 150), and 5′-[…]-3′ and 5′-[…]-3′ for nlmC (SMU. 1914C). All experiments using commercially available kits were performed according to the manufacturer’s instructions.

[2] = tested on: S. mutans biofilm formation; assay: Biofilm formation assay (crystal violet staining; tilted tube culture); assay type: cell-based, S. mutans strain UA159
Method: After 18 h of standing incubation at 37 °C in 5% CO2 under anaerobic condition in an AnaeroPack system (Mitsubishi Gas Chemical, Tokyo, Japan), the cultured medium was removed, and adherent bacteria were stained with 200 μL of 0.005% crystal violet for 30 min. […] The dye was extracted into 200 μL of 60% ethanol, and the biofilm mass was estimated by using a microplate reader (Bio-Rad, Model 680XR) (Bio-Rad, Hercules, CA) to measure the absorbance at 595 nm. […]

MuPEP1 (S. mutans PEP) = MuPEP1 (S. mutans PEP) (Streptococcus mutans, UniProt Q8DW05); assay: MuPEP1 peptidase inhibition assay with fluorogenic substrate tCComC-AFC; assay type: biochemical
Sequence of MuPEP1 (S. mutans PEP) (Q8DW05 entry or part of it): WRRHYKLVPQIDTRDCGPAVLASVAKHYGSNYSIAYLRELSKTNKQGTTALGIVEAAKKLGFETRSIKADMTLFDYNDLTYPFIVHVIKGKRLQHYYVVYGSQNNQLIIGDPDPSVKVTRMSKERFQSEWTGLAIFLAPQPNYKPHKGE
Method: This region of ComC is necessary and sufficient for the interaction with PEP[17]. […] Thus, this synthetic peptide was used as a functionally relevant substrate. Assays were performed in black flat-bottom 384-well plates (Greinar, 784900) under ambient conditions. All compounds dissolved in DMSO were predispensed on the plate (100 nL/well) with the final concentration of 20 μM, and then aliquots of 5 μL of 0.5 μM MuPEP1 (final concentration) in 50 mM Tris-HCl, 150 mM ammonium sulfate, and 0.02% Triton X-100 were dispensed to each well by using a Multidrop Combi dispenser (Thermo Fisher Scientific, Vantaa, Finland). […] These reaction mixtures contained DMSO at a 3% final concentration. Each 384-well plate contained 16 negative control wells (lacking MuPEP1) and 16 positive control wells (100 nL of DMSO replacing 100 nL of compound in DMSO). After 3-h incubation, the fluorescence intensity of the released AFC was measured by using a microplate reader, PHERAstar (BMG Labtech, Offenburg, Germany), with excitation at 380 nm and emission at 490 nm.
Fifteen microliters of 3.3 mM of phosphoric acid was added to 8 μL of the reaction mixtures from the screening. […] The fluorescence was detected by using excitation at 360 nm and emission at 470 nm.
Dose-dependent inhibitory activities of compounds against MuPEP1 were examined in quadruplicate. […]

S. mutans = assay: Bacterial growth / viable cell count; assay type: cell-based, S. mutans strain UA159; settings: 25 μM compound, tube culture
Method: […] After 18 h of standing incubation at 37 °C in 5% CO2 under anaerobic condition in an AnaeroPack system (Mitsubishi Gas Chemical, Tokyo, Japan), the cultured medium was removed, and adherent bacteria were stained with 200 μL of 0.005% crystal violet for 30 min. The wells were washed twice with 300 μL of distilled water and then air dried. The dye was extracted into 200 μL of 60% ethanol, and the biofilm mass was estimated by using a microplate reader (Bio-Rad, Model 680XR) (Bio-Rad, Hercules, CA) to measure the absorbance at 595 nm. The bacterial growth was determined by measuring the turbidity (absorbance at 595 nm) of parallel wells.
For the count of viable cells shown in Fig. 2B, part of the culture was serially diluted and spread onto the BHI plate, and the plates were incubated overnight at 37 °C in 5% CO2 under anaerobic condition.

[3] = tested on: S. mutans competence development; assay: Transformation assay (competence development); assay type: cell-based; settings: 10 μM compound
Method: Four microliters of the overnight culture of S. mutans in BHI medium was inoculated to 0.4 mL of CDM in the absence or presence of 10 µM Compound 1. After 7.5 h incubation at 37 °C in 5% CO2 under anaerobic condition in the AnaeroPack system, 1 μg of plasmid pSET2 was added to the culture. After additional 3-h growth, the cultures were chilled on ice, and serial dilutions of the cultures were plated onto BHI agar plates (for enumeration of total CFU) and onto BHI agar plates containing 1 mg/mL spectinomycin (for enumeration of transformants). Transformation efficiency was determined after 24–48 h incubation at 37 °C in 5% CO2 under anaerobic condition.

S. pneumoniae PEP = biological target: T1, S. pneumoniae PEP (Streptococcus pneumoniae serotype 4, UniProt Q03727); assay: S. pneumoniae PEP peptidase assay with tCComC-AFC; assay type: biochemical
T1 construct: His-tag; made in house; host or cells: E. coli BL21 (DE3) pLysS
T1 sequence (Q03727 11-138): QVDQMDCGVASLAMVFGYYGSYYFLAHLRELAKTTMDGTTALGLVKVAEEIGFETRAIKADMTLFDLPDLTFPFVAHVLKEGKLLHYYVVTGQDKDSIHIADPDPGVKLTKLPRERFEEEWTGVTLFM
Method: as §1, with “nm. […]” for “nm.”
as §4
(§5) domain of S. pneumoniae BlpA with Compound 1. […]
(§6) was digested with 0.5 μM PEP or the peptidase domain of BlpA in the presence of […]

[4] = biological target: peptidase domain of S. pneumoniae BlpA (Streptococcus pneumoniae, UniProt G3ECC8); assay: BlpA peptidase domain assay with tCComC-AFC
Sequence of peptidase domain of S. pneumoniae BlpA (G3ECC8 entry or part of it): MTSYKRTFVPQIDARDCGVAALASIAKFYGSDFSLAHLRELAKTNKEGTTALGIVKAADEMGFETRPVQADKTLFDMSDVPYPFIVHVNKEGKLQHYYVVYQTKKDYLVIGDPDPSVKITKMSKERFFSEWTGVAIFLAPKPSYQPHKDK
Method: as §1, §2, §3, §4
(1 picture or pasted object on this page, not shown here) […]
as §5, §6

[5] = tested on: CC(C)C[C@H](NC(=O)[C@H](CCC(=O)O)NC(=O)[C@H](CCCCN)NC(=O)[C@H](CCC(=O)O)NC(=O)[C@H](CC(N)=O)NC(=O)[C@H](CC(C)C)NC(=O)[C@@H](NC(=O)[C@@H]1CCCN1C(=O)[C@H](Cc1ccccc1)NC(=O)[C@H](CCC(N)=O)NC(=O)[C@H](C)N)C(C)C)C(=O)N[C@@H](CCCCN)C(=O)N[C@@H](CCC(=O)O)C(=O)N[C@H](C(=O)N[C@@H](CC(C)C)C(=O)NCC(=O)NCC(=O)Nc1ccc2c(C(F)(F)F)cc(=O)oc2c1)C(C)C; assay: purified protein, by the assay type
[6] = other: MuPEP1, non-competitive inhibition model fit, Fig. 2E, pH 7.0, 25.0 °C
[7] = other: saturation curve, pH 7.0, 25 °C, Fig. S1

Sequence of MuPEP1 (Q8DW05 entry or part of it): as the sequence (Q8DW05 entry or part of it) above

CCCNC(=O)OCC1CC2CCN1CC2C#Cc1ccccc1 (centres unmarked) [Compound 1]
Ki (MuPEP1): 38 µM
Inhibition mechanism (MuPEP1; Vmax decreased, Km unaffected): non-competitively inhibited
IC50 (S. oralis PEP): 25 µM
Relative gene expression level of nlmA [1]: 18%
Relative gene expression level of nlmC [1]: 23%
Biofilm in standing culture in tilted round-bottom culture tubes ([2]; 25 μM compound, overnight standing culture): easily detached and dispersed after gentle swirling
EC50 ([2]; Streptococcus mutans, S. mutans, crystal violet staining, 96-well plate, 18 h, read-out: EC50 of suppression of biofilm formation): 5 µM
IC50 (MuPEP1 (S. mutans PEP)): 38 µM
Antimicrobial activity against S. mutans (S. mutans): did not show antimicrobial activity
Transformation efficiency relative to absence of compound [3]: 35%
IC50 (S. pneumoniae PEP): 29 µM
IC50 [4]: 16 µM

MuPEP1 (Streptococcus mutans UA159)
Km [5, 6]: 43 µM
kcat [5, 6]: 0.00333 s⁻¹
Km [5, 7]: 46 µM
kcat [5, 7]: 0.00317 s⁻¹

S. oralis PEP (Streptococcus oralis subsp. oralis)
Km [5, 7]: 8.2 µM
kcat [5, 7]: 0.00123 s⁻¹

peptidase domain of S. pneumoniae BlpA (Streptococcus pneumoniae)
Km [5, 7]: 18 µM
kcat [5, 7]: 0.011 s⁻¹
